The values below come from patent publication US10889569B2, “Condensed ring group azacyclobutyl triazole derivative, preparation method therefor and use thereof in medicine” (Jiangsu Hengrui Medicine Co., Ltd., priority 2016, dated 2021).

Data set [1] can be described thus: Pharmacokinetics assay in rats after intragastrical administration. It is filed as in vivo, SD rats. As to conditions: Sprague-Dawley, rat, plasma, po, 30 mg/kg, intragastric, male rats; for Vd/F: read-out: Apparent distribution volume Vz/F; for AUC: read-out: Area under curve AUC; for CL/F: read-out: Clearance CLz/F; for half-life: read-out: Half-life T1/2 (converted); for Cmax: read-out: Plasma concentration Cmax; for MRT: read-out: Residence time MRT. How it is done: Male SD rats were used as test animals. The drug concentration in plasma at different time points was determined by LC/MS/MS method after intragastrical administration of the compounds of Examples 2, 17, 34, 37, 38, 39 and 43 to rats. The pharmacokinetic behavior of the compounds of the present invention was studied and evaluated in rats.
Twenty-one healthy adult male Sprague-Dawley (SD) rats were purchased from Shanghai Jiesijie Laboratory Animal Co., LTD, with Certificate No.: SCXK (Shanghai) 2013-0006, and equally divided into 7 groups (3 rats per group).
A certain amount of the test compound was weighed, and added with 2.5% by volume of DMSO and 97.5% by volume of 10% solutol HS-15 to formulate a […] colorless, clear and transparent solution.
After an overnight fast, SD rats were administered intragastrically the test compounds at an administration dosage of 30.0 mg/kg and an administration volume of 10.0 mL/kg.
The rats were intragastrically administered the compounds of Examples 2, 17, 34, 37, 38, 39 and 43. 0.2 mL of blood was taken from the orbital sinus before administration and at 0.5, 1.0, 2.0, 4.0, 6.0, 8.0, 11.0 and 24.0 hours after administration. The samples were stored in heparinized tubes, and centrifuged for 10 minutes at 4° C. at 3500 rpm to separate the plasma. The plasma samples were stored at −20° C. The rats were fed 2 hours after administration.
The content of the test compounds in the plasma of rats after intragastrical administration of the test compounds at different concentrations was determined: 50 μL of rat plasma at each time after administration was taken, added with 50 μL of the internal standard solution of camptothecin (100 ng/mL) and 150 μL of acetonitrile, vortex-mixed for 5 minutes, and centrifuged for 10 minutes (4000 rpm). 3 μL of the supernatant was taken from the plasma samples for LC/MS/MS analysis.

In the next data set the target is human V1aR (Homo sapiens (Human), UniProt P37288). The data set can be described thus: Inhibition activity on human V1aR (Fluo-4 calcium assay, HEK293/human V1aR stably transfected cells). It is filed as cell-based. As to conditions: vasopressin 3 nM. The essentials:
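Stable HEK293/human V1aR cells, 25,000 cells/well, loaded with Fluo-4 for 30 minutes at 37° C. then 10 minutes room temperature; compounds (formulated at 10^1–10^6 nM) added 10 minutes before 3 nM vasopressin. Calcium fluorescence read immediately at 494/516; IC50 from concentration–signal curves.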

As usually defined, the AUC is concentration integrated over time. Usually MRT stands for the average time that molecules of a dose stay in the body. In general, IC50 refers to the concentration that gives 50% inhibition.

Chain of human V1aR (P37288 whole entry): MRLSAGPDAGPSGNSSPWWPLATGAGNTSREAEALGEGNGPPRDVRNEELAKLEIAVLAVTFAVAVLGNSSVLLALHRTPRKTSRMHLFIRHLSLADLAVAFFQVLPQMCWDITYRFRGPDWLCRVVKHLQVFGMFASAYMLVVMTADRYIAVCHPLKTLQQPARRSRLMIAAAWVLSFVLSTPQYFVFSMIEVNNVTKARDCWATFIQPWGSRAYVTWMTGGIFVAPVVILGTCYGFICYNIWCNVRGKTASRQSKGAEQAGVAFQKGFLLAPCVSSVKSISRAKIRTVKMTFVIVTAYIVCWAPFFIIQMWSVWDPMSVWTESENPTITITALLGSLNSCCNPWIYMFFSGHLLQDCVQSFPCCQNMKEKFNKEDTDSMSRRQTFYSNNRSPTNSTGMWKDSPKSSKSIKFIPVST

As for `COCc1nnc(N2CC(c3cccc4cc(F)ccc34)C2)n1-c1ccc(OC)nc1` [Example 2, 5-(3-(3-(6-Fluoronaphthalen-1-yl)azetidin-1-yl)-5-(methoxymethyl)-4H-1,2,4-triazol-4-yl)-2-methoxypyridine], in data set [1], the Vd/F stood at 5.29 ± 3.44 L/kg, the exposure (AUC) is 8580 ± 3560 ng·h/mL, the CL/F was found to be 63.8 ± 26.5 mL/min/kg and the half-life is 0.91 ± 0.25 h. Also, in data set [1], the Cmax was 3930 ± 3030 ng/mL and the MRT was determined as 2.46 ± 1.44 h. For the same compound, the IC50 on human V1aR is 4.5 µM.
Consider `COCc1nnc(N2CC(n3cc(C)c4cc(F)ccc43)C2)n1-c1ccc(OC)nc1` [Example 17, 5-Fluoro-1-(1-(5-(methoxymethyl)-4-(6-methoxypyridin-3-yl)-4H-1,2,4-triazol-3-yl)azetidin-3-yl)-3-methyl-1H-indole], for which, in data set [1], the Vd/F came to 13.7 ± 3.83 L/kg, the AUC came to 11200 ± 4390 ng·h/mL, the CL/F was found to be 48 ± 19 mL/min/kg and the half-life is 3.35 ± 0.399 h. In data set [1], the Cmax worked out at 2020 ± 580 ng/mL and the MRT was found to be 5.08 ± 0.552 h. The concentration for half-maximal inhibition (IC50) on human V1aR was determined as 4.4 µM.
